Assay results reported in patent publication US20140235685A1, “PHARMACEUTICAL COMPOSITIONS COMPRISING 4-BROMO-N-(IMIDAZOLIDIN-2-YLIDENE)-1H-BENZIMIDAZOL-5-AMINE FOR TREATING SKIN DISEASES” (Allergan, Inc., priority 2011, published 2014).

Tested on: cutaneous blood flow in the microvasculature of the hind foot pad
Test: Rat Blood Flow Assay (laser Doppler flowmetry, hind foot pad)
Format: in vivo
Protocol: α-adrenergic agonists that act on the sympathetic nervous system outflow can regulate cutaneous blood flow in response to temperature changes.
A laser Doppler microvascular perfusion monitor (Laser Doppler Flowmetry LDP technique), was used to monitor red blood cell perfusion in the microvasculature of the hind foot pad. The laser doppler flowmetry (LDP) is an OxyFlo Microvascular Perfusion Monitor, from Oxford Optronix LTd. UK.
Briefly, 15 μL of test articles were applied topically to one hind foot pad of anaesthetized CD rats and 15 μL of vehicle was applied to the other footpad. The hairless CD rats used are a spontaneous mutation model isolated from a Crl:CD(SD) colony in Charles River, in the late 1980s. Rederived in 1993 and subsequently transferred to Charles River, Raleigh, N.C. for barrier room production. […] Specific genetic analysis to identify the mutation has not been undertaken. Histopathology has determined the model is euthymic.
Thirty minutes following test article administration, dynamic blood flow changes were measured and recorded every 15 seconds for 4 minutes per temperature interval for 5 intervals (22° C.→37° C.→4° C.→37° C.→22° C.). Rats were placed on a 37° C. heat pad to increase their temperature and on an ice pad to decrease their temperature to 4° C. The level of blood flow in the two paws was compared. […] It has a significant difference.

`Brc1c(N=C2NCCN2)ccc2[nH]cnc12` [4-bromo-N-(imidazolidin-2-ylidene)-1H-benzimidazol-5-amine] was tested, and the “effect on induced vessel dilation caused at 37° C.” value (topical application to the skin at a concentration of 0.5%, FIG. 1) was “inhibited the induced vessel dilation” and the “overall blood flow inhibition” value (topical, 15 μL to one hind foot pad of anaesthetized hairless CD rats vs vehicle on other footpad, measured 30 min after application over 5 temperature intervals (22→37→4→37→22° C.), P=0.014) was 17%.
